Experiment [1] concerns Primary fibroblasts from donors with Friedreich Ataxia (FRDA). Description: BSO assay (cell viability under BSO-induced oxidative stress). Format: cell-based, human. The settings on record: Homo sapiens, Fibroblast, 24 h preincubation, 1 mM BSO. In short, it runs like this: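 FRDA patient primary fibroblasts were pretreated with compounds for 24 h, then exposed to 1 mM BSO (final) until toxicity appeared in BSO-only controls (typically 16–48 h). Viability was read by calcein AM (1.2 μM)/ethidium homodimer (4 μM) staining, 60 min RT, fluorescence 485/525 nm.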

The next experiment deals with T1, human μ-calpain (Homo sapiens, UniProt P07384).
T1 construct: purchased Calbiochem
T1 sequence (P07384 1-714): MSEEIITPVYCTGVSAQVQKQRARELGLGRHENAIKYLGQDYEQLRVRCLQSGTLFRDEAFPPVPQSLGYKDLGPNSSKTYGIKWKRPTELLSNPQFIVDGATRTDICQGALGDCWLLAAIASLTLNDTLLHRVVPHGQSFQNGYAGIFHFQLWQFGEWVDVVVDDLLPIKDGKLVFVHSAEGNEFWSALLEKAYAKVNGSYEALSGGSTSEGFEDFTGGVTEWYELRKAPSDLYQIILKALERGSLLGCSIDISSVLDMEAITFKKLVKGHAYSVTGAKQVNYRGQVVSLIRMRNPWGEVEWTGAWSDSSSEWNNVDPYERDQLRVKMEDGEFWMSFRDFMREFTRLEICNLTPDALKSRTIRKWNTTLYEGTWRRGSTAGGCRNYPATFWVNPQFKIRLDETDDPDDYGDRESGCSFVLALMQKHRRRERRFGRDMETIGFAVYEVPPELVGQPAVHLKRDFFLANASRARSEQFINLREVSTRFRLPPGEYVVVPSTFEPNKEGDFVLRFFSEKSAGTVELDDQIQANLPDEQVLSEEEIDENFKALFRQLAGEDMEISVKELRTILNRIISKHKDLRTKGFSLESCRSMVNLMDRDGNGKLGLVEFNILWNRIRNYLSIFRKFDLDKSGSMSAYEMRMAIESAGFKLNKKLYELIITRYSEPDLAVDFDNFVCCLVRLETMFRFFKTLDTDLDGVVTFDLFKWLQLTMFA
T1 sequence (P04632 1-268 partner): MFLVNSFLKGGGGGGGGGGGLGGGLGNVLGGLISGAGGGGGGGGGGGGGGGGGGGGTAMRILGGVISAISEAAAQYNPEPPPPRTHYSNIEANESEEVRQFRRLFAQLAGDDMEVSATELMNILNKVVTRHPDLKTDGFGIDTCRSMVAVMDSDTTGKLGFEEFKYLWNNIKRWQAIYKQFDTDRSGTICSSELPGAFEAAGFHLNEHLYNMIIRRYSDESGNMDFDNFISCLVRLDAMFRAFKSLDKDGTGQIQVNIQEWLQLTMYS
Description: Enzymatic calpain inhibition assay. Format: biochemical. The settings on record: substrate Suc-Leu-Tyr-AMC, read-out: Calp I IC50. The method in brief:
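Human μ-calpain (0.5 μg) with 250 μM Suc-Leu-Tyr-AMC in 100 mM imidazole pH 7.5, 5 mM cysteine, 5 mM CaCl2. AMC fluorescence (ex 360/em 440 nm) followed 30 min at 30 °C; IC50 determined graphically from initial velocities versus inhibitor concentration.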

Molecules are shown by their SMILES.

The term EC50 denotes the concentration needed to bring the measured effect to its halfway point. Read a low EC50 as an effect from little substance. Usually IC50 stands for the midpoint of a concentration-inhibition curve. For the molecule `CCNC(=O)C(=O)[C@H](Cc1ccc(Br)cc1)NC(=O)[C@H](CC(C)C)NC(=O)CCCCC1CCSS1` (some centres unmarked) [Example 64], a half-maximal effect in experiment [1] (EC50) was put at 1000 nM. In addition, on human μ-calpain, the IC50 is 25 nM.

For the origin of these results see patent publication US20060258598A1, “Alpha-keto carbonyl calpain inhibitors” (priority 2003, published 2006).
